Data from patent US9366682B2, “Use of stathmin as a biomarker of drug response to furazanobenzimidazoles” (BASILEA PHARMACEUTICA AG, priority 2011, dated 2016).

Key:
Type in all cases: cell-based, human
[1] = test system: GXF 251 patient-derived gastric tumour cells; assay: Colony outgrowth assay, patient-derived gastric tumour GXF 251; set-up: key to Response (sensitive/resistant): BAL27862-sensitive tumour cells were those that had IC70 values in the low nanomolar range; BAL27862-resistant tumour cells had IC70 values >600 nanomolar; details: for Response (sensitive/resistant): colony outgrowth, Gastric GXF 251, by IC70 criteria
Experimental: (§1) Single cell suspensions of patient-derived tumour xenografts (maintained in nude mice) were prepared. For colony outgrowth assays, cells were plated in soft agar in 24-well plates according to the assay introduced by Hamburger & Salmon (Primary bioassay of human tumour stem cells, Science, 1977, 197:461-463). 2×10^4-6×10^4 cells in 0.2 mL medium containing 0.4% agar were plated out on a bottom layer of 0.75% agar. Test compounds were applied in 0.2 mL culture medium. Every 24-well plate contained untreated controls and samples in triplicates. Cultures were incubated at 37° C. and 7.5% CO2 for 5-28 days. 24 hours prior to analysis, vital colonies were stained with a solution of metabolizable tetrazolium salt (Alley M C et al, Life Sci. 1982, 31:3071-3078) and were counted with an automatic image analysis system (Omnicon 3600, Biosys GmbH).
(§2) Relative drug effects were expressed by the ratio of the mean number of colonies in the treated wells and the control wells. IC70-values were determined by plotting compound concentrations versus relative colony counts.

[2] = test system: LXFE211 patient-derived lung cancer cells; assay: Colony outgrowth assay, patient-derived lung cancer LXFE211; set-up: key to Response (sensitive/resistant): BAL27862-sensitive tumour cells were those that had IC70 values in the low nanomolar range; BAL27862-resistant tumour cells had IC70 values >600 nanomolar; details: for Response (sensitive/resistant): colony outgrowth, Lung LXFE211, by IC70 criteria
Experimental: as §1, §2

A549 NSCLC cells = assay: Immunofluorescent staining of microtubules in cultured cells; details: for Microtubule phenotype, combination treatment: colchicine; for Microtubule phenotype: A549, 24 hours treatment, mitotic or G2/M arrested cells, anti-alpha-tubulin staining, BAL27862 50 nM, Compound B 80 nM, Compound C 20 nM
Experimental: (§3) A549 human non-small cell lung cancer (NSCLC, ATCC reference number CCL-185) cells, HeLa cervical cancer cells (ATCC reference number CCL-2) and SKBR3 breast carcinoma cells (ATCC reference number HTB-30) were seeded at densities of 50% on round microscope coverslips and cultured for 24 hours in RPMI-1640 containing 10% FCS (also referred to as FBS) at 37° C., 5% CO2. Compounds to be tested were dissolved in DMSO. The cell culture medium was replaced with medium containing the diluted compound(s) (paclitaxel, vinblastine, colchicine and nocodazole were purchased from Sigma-Aldrich) or vehicle. After treatment for the times indicated in the Brief Description of the Figures, coverslips were washed and cells were fixed in methanol/acetone (1:1) for 5 minutes at room temperature and subsequently incubated in blocking buffer (0.5% BSA and 0.1% TX-100 in PBS) for 30 minutes at room temperature. Specimens were then incubated with anti-alpha-tubulin antibody (Sigma, 1:2000) for 1 hour at room temperature in blocking buffer. After several washing steps cells were incubated with AlexaFluor-488 goat-anti-mouse IgG (Molecular Probes, 1:3000) for 1 hour at room temperature followed by several washing steps with blocking buffer. Specimens were then mounted with ProLong Gold antifade (Molecular Probes), sealed with nail polish and examined with a Leica immunofluorescence microscope. Images were captured with a cooled CCD-camera and processed by ImageJ software.

[3] = test system: SKBR3 breast cancer cells; assay: as above; details: SKBR3, 24 hours treatment with 50 nM, anti-alpha-tubulin staining
Experimental: as §3

[4] = test system: HeLa cervical cancer cells; assay: as above; details: 24 hours treatment with 50 nM, anti-alpha-tubulin staining
Experimental: as §3

[5] = test system: LXFE397 patient-derived lung cancer cells; assay: Colony outgrowth assay, patient-derived lung cancer LXFE397
Experimental: as §1, §2

[6] = test system: MEXF 276 patient-derived melanoma cells; assay: Colony outgrowth assay, patient-derived melanoma MEXF 276; set-up: key to Response (sensitive/resistant): BAL27862-sensitive tumour cells were those that had IC70 values in the low nanomolar range; BAL27862-resistant tumour cells had IC70 values >600 nanomolar; details: for Response (sensitive/resistant): colony outgrowth, melanoma MEXF 276 (resistant model 1), by IC70 criteria
Experimental: as §1, §2

[7] = test system: MEXF 989 patient-derived melanoma cells; assay: Colony outgrowth assay, patient-derived melanoma MEXF 989; details: for Response (sensitive/resistant): colony outgrowth, melanoma MEXF 989 (resistant model 2), by IC70 criteria
Experimental: as §1, §2

[8] = test system: MEXF 1341 patient-derived melanoma cells; assay: Colony outgrowth assay, patient-derived melanoma MEXF 1341; set-up: key to Response (sensitive/resistant): BAL27862-sensitive tumour cells were those that had IC70 values in the low nanomolar range; BAL27862-resistant tumour cells had IC70 values >600 nanomolar; details: for Response (sensitive/resistant): colony outgrowth, melanoma MEXF 1341, by IC70 criteria
Experimental: as §1, §2

[9] = test system: GXF 97 patient-derived gastric tumour cells; assay: Colony outgrowth assay, patient-derived gastric tumour GXF 97; set-up: key to Response (sensitive/resistant): BAL27862-sensitive tumour cells were those that had IC70 values in the low nanomolar range; BAL27862-resistant tumour cells had IC70 values >600 nanomolar; details: for Response (sensitive/resistant): colony outgrowth, Gastric GXF 97, by IC70 criteria
Experimental: as §1, §2

| Structure (SMILES) | Response (sensitive/resistant) [1] | Response (sensitive/resistant) [2] | Microtubule phenotype (A549 NSCLC cells) | Response (sensitive/resistant) [8] | Response (sensitive/resistant) [9] | also measured |
| --- | --- | --- | --- | --- | --- | --- |
| N#CCCNc1nonc1-c1nc2ccccc2n1CC(=O)c1ccc(N)cc1 [BAL27862, 3-(4-{1-[2-(4-Amino-phenyl)-2-oxo-ethyl]-1H-benzoimidazol-2-yl}-furazan-3-ylamino)-propionitrile] | sensitive | sensitive | multiple dot-like structures | sensitive | resistant (BAL27862-resistant tumour cells had IC70 values >600 nanomolar) | IC70 ([1]; 70% growth inhibition versus controls, Gastric GXF 251): 0.485 µM; IC70 ([2]; 70% growth inhibition versus controls, Lung LXFE211): 0.021 µM; Microtubule phenotype, combination treatment (A549 NSCLC cells; A549, 24 hours BAL27862 with the final 4 hours including vinblastine, paclitaxel or nocodazole): no impact on the observed microtubule phenotype; Microtubule phenotype (A549 NSCLC cells; listed as compound A): highly reproducible and distinct microtubule phenotype; Microtubule phenotype, combination treatment (A549 NSCLC cells; A549, 24 hours vinblastine, paclitaxel or nocodazole with the final 4 hours including BAL27862): disruption of the microtubule structures; Microtubule phenotype [3]: highly reproducible and distinct microtubule phenotype; Microtubule phenotype [4]: highly reproducible and distinct microtubule phenotype; IC70 ([5]; 70% growth inhibition versus controls, Lung LXFE397): >3.5 µM; Response (sensitive/resistant) ([5]; colony outgrowth, Lung LXFE397, by IC70 criteria): resistant (BAL27862-resistant tumour cells had IC70 values >600 nanomolar); IC70 ([6]; 70% growth inhibition versus controls, melanoma MEXF 276): >3.5 µM; IC70 ([7]; 70% growth inhibition versus controls, melanoma MEXF 989): >3.5 µM; IC70 ([8]; 70% growth inhibition versus controls, melanoma MEXF 1341): 0.025 µM; IC70 ([9]; 70% growth inhibition versus controls, Gastric GXF 97): >3.5 µM |
| Nc1ccc(C(=O)Cn2c(-c3nonc3N)nc3ccccc32)cc1 [Compound B, 2-[2-(4-Amino-furazan-3-yl)-benzoimidazol-1-yl]-1-(4-amino-phenyl)-ethanone] | – | – | highly reproducible and distinct microtubule phenotype | – | – | – |
| N#CCCNc1nonc1-c1nc2ccccc2n1CC(=O)c1ccc(N)nc1 [Compound C, 3-(4-{1-[2-(6-Amino-pyridin-3-yl)-2-oxo-ethyl]-1H-benzoimidazol-2-yl}-furazan-3-ylamino)-propionitrile] | – | – | highly reproducible and distinct microtubule phenotype | – | – | – |
| COc1cc2c(c(OC)c1OC)-c1ccc(OC)c(=O)cc1[C@@H](NC(C)=O)CC2 [colchicine, reference compound] | – | – | mitotic microtubule phenotypes characteristic of these agents | – | – | – |
| COC(=O)Nc1nc2ccc(C(=O)c3cccs3)cc2[nH]1 [nocodazole, reference compound] | – | – | mitotic microtubule phenotypes characteristic of these agents | – | – | – |
| CC(=O)O[C@H]1C(=O)[C@@]2(C)[C@H]([C@H](OC(=O)c3ccccc3)[C@]3(O)C[C@H](OC(=O)[C@H](O)[C@@H](NC(=O)c4ccccc4)c4ccccc4)C(C)=C1C3(C)C)[C@]1(OC(C)=O)CO[C@@H]1C[C@@H]2O [paclitaxel, reference compound] | resistant (BAL27862-resistant tumour cells had IC70 values >600 nanomolar) | esistant | mitotic microtubule phenotypes characteristic of these agents | resistant (BAL27862-resistant tumour cells had IC70 values >600 nanomolar) | resistant (BAL27862-resistant tumour cells had IC70 values >600 nanomolar) | Response (sensitive/resistant) [6]: resistant (BAL27862-resistant tumour cells had IC70 values >600 nanomolar); Response (sensitive/resistant) [7]: resistant (BAL27862-resistant tumour cells had IC70 values >600 nanomolar) |
| CC[C@]1(O)C[C@@H]2CN(CCc3c([nH]c4ccccc34)[C@@](C(=O)OC)(c3cc4c(cc3OC)N(C)[C@H]3[C@@](O)(C(=O)OC)[C@H](OC(C)=O)[C@]5(CC)C=CCN6CC[C@]43[C@@H]65)C2)C1 [vinblastine, reference compound] | sensitive | sensitive | mitotic microtubule phenotypes characteristic of these agents | sensitive | sensitive | Response (sensitive/resistant) [6]: sensitive; Response (sensitive/resistant) [7]: resistant (BAL27862-resistant tumour cells had IC70 values >600 nanomolar) |
